The subject of data set [1] is MDA-MB-231 cells. The data set can be described thus: MDA-MB-231 cell viability assay. The format is cell-based. Particulars: 48 h, up to 10 μM.
Data set [2] relates to 13 multiple myeloma cell lines. Particulars: cited from earlier work.
The subject of data set [3] is phospho-AKT (Ser129). Description: Western blot analyses of pAKT and AKT in MDA-MB-231 cells. The format is cell-based. Particulars: 24 h exposure. Background: Immunoblotting shows a protein as a band on a membrane.
Data set [4] relates to MDA-MB-231 cells. To be noted: 2–10 μM, 24–72 h, WST-1; cited from earlier work. Background: Formazan colour is commonly taken as a measure of viable cells.
Data set [5] can be described thus: Kinetic solubility. To be noted: for measured solubility relative to the dose concentration: actual solubility estimated to be higher than Table 1; for solubility kinetic at 24 h: pH 7.4, kinetic solubility, PBS pH 7.4, 24-hour incubation.
The test system of data set [6] is DYRKs and HIPKs. The data set can be described thus: Enzymatic profiling, 8-member DYRK and HIPK panel. The format is biochemical. Particulars: 1 μM.
The nature of data set [7]: PAMPA. The format is in vitro ADME. To be noted: correlation. (In general: In PAMPA a lipid-coated filter parts donor from acceptor wells.)
Data set [8] concerns CK2α and CK2α′. The data set can be described thus: CK2 NanoBRET assays.
The target in data set [9] is PIP5K1C (Homo sapiens, UniProt O60331). The data set can be described thus: Enzymatic assay, dose-response. The class given is biochemical.
PIP5K1C, sequence (O60331 whole entry): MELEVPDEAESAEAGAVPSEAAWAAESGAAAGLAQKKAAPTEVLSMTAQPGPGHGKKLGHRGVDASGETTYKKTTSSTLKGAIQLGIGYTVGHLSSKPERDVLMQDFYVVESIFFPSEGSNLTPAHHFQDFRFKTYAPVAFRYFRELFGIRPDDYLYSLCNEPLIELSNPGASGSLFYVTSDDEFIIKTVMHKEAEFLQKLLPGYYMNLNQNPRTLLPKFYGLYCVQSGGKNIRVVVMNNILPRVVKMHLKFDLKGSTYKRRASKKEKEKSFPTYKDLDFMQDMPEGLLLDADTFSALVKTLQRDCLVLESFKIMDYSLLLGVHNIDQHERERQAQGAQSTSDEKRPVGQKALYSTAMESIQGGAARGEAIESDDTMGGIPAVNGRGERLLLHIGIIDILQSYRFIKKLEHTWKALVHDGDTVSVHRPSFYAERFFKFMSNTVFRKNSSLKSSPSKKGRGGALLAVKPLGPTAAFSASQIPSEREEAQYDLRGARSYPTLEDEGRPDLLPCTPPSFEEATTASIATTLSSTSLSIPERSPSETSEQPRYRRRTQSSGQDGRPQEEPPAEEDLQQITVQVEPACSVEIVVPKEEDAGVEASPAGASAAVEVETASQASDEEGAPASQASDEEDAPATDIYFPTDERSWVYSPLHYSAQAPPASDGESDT

SMILES strings stand for the structures.

As for `O=C(O)c1ccc2c(c1)nc(Nc1cccc(Cl)c1)c1ccncc12` [CX-4945, 5-(3-chlorophenylamino)benzo[c][2,6]naphthyridine-8-carboxylic acid, reference compound], the cytotoxicity result in [1] is “did not exhibit cytotoxicity”. For the same compound, the antiproliferative activity result in data set [2] is “low micromolar antiproliferative activity”. Further, in data set [3], the AKT phosphorylation entry was “dose-dependent inhibition of AKT phosphorylation” and the “total AKT expression” value is on record as “no impact on total AKT expression”. In data set [4], the cell growth result is reported as “cell growth is inhibited”.

With `N#Cc1cccc(Nc2nc3cc(C(=O)O)ccc3c3cncnc23)c1` [CX-5011, reference compound], the cytotoxicity entry in [1] is “did not exhibit cytotoxicity”.

Take `O=C(O)c1ccc2c(c1)nc(NCc1ccccc1)c1ncncc12` [Compound 2]: the cytotoxicity result in [1] is “neither compound 2 nor SGC-CK2-1 exhibited significant cytotoxicity”. Further, in [5], the “measured solubility relative to the dose concentration” value is on record as “greater than 75%” and the solubility (kinetic) (commonly the concentration staying in solution when a stock, usually in DMSO, is diluted into the medium) at 24 h is > 100 µM. Also, in [6], the “activity in DYRK and HIPK enzymatic panel” value was “lacked activity against DYRKs and HIPKs”. The “human fraction absorbed (%FA) correlated with PAMPA Pe” value in data set [7] is on record as “greater than 80%”. In data set [3], the AKT phosphorylation entry is on record as “dose-dependent inhibition of AKT phosphorylation” and the “total AKT expression” value was “no impact on total AKT expression”.

In the case of `O=C(O)c1ccc2c(c1)nc(NCc1ccccc1)c1ncccc12` [Compound 7], in data set [1], the cytotoxicity entry was “did not exhibit cytotoxicity”. Also, the “human fraction absorbed (%FA) correlated with PAMPA Pe” value in data set [7] was “greater than 80%”. Further, in [8], the “binding in CK2α and CK2α′ NanoBRET assays” value is reported as “not bind either kinase at concentrations up to 10 μM”. The “PIP5K1C inhibition, enzymatic follow-up” value in data set [9] is “did not result in PIP5K1C inhibition”.

On to `COc1cccc(CCNc2nc3cc(C(=O)O)ccc3c3cncnc23)c1` [Compound 8], for which, in [5], the “measured solubility relative to the dose concentration” value is on record as “greater than 75%” and the solubility (kinetic) at 24 h is > 100 µM. Also, the “activity in DYRK and HIPK enzymatic panel” value in data set [6] is “lacked activity against DYRKs and HIPKs”.

Turning to `O=C(O)c1ccc2c(c1)nc(NCCc1cccc(Cl)c1)c1ncncc12` [Compound 9], in [5], the kinetic solubility at 24 h was > 100 µM. Also, the “activity in DYRK and HIPK enzymatic panel” value in data set [6] was “lacked activity against DYRKs and HIPKs”.

As to `O=C(O)c1ccc2c(c1)nc(NCCc1cccc(F)c1)c1ncncc12` [Compound 10], the solubility (kinetic) at 24 h in [5] was > 100 µM. Also, in data set [6], the “activity in DYRK and HIPK enzymatic panel” value is “potent inhibition of just one kinase”.

Take `O=C(O)c1ccc2c(c1)nc(Nc1ccc3ccccc3c1)c1ncncc12` [Compound 11]: in [5], the “observation during solubility assessment” value is on record as “insoluble residue”.

Regarding `O=C(O)c1ccc2c(c1)nc(Nc1ccc(Cl)cc1)c1ncncc12` [Compound 12], the “measured solubility relative to the dose concentration” value in data set [5] is on record as “greater than 75%”.

Turning to `O=C(O)c1ccc2c(c1)nc(Nc1cccc(F)c1)c1ncncc12` [Compound 13], in data set [5], the “measured solubility relative to the dose concentration” value is on record as “greater than 75%”.

Regarding `O=C(O)c1ccc2c(c1)nc(Nc1ccccc1Cl)c1ncncc12` [Compound 15], the “observation during solubility assessment” value in [5] is on record as “insoluble residue”.

Take `O=C(O)c1ccc2c(c1)nc(Nc1ccccc1)c1ncncc12` [Compound 16]: in [5], the “measured solubility relative to the dose concentration” value was “greater than 75%”.

As for `O=C(O)c1ccc2c(c1)nc(NCCc1ccccc1)c1ncncc12` [Compound 17], the solubility (kinetic) at 24 h in data set [5] is > 100 µM. Further, the “activity in DYRK and HIPK enzymatic panel” value in [6] was “potent inhibition of just one kinase”.

Take `O=C(O)c1ccc2c(c1)nc(NCCc1cccc(Cl)c1)c1ccncc12` [Compound 18]: in data set [5], the “measured solubility relative to the dose concentration” value is “greater than 75%” and the kinetic solubility at 24 h is > 100 µM. For the same compound, in data set [6], the “activity in DYRK and HIPK enzymatic panel” value was “potent inhibition of just one kinase”.

For the compound `O=C(O)c1ccc2c(c1)nc(NCc1ccccc1)c1ccncc12` [Compound 21], in [5], the “measured solubility relative to the dose concentration” value was “greater than 75%” and the kinetic solubility at 24 h is > 100 µM. Moreover, the “activity in DYRK and HIPK enzymatic panel” value in [6] was “lacked activity against DYRKs and HIPKs”.

In the case of `O=C(O)c1ccc2c(c1)nc(NCCc1cccc(F)c1)c1ccncc12` [Compound 22], in data set [5], the “measured solubility relative to the dose concentration” value was “greater than 75%” and the solubility (kinetic) at 24 h was > 100 µM.

Turning to `O=C(O)c1ccc2c(c1)nc(Nc1cccc(F)c1)c1ccncc12` [Compound 23], the “measured solubility relative to the dose concentration” value in data set [5] is recorded as “greater than 75%”.

For `COc1cccc(CCNc2nc3cc(C(=O)O)ccc3c3cnccc23)c1` [Compound 24], in [5], the “measured solubility relative to the dose concentration” value is “greater than 75%” and the kinetic solubility at 24 h was > 100 µM. Moreover, the “activity in DYRK and HIPK enzymatic panel” value in data set [6] is “potent inhibition of just one kinase”.

In the case of `O=C(O)c1ccc2c(c1)nc(Nc1ccccc1)c1ccncc12` [Compound 25], the “measured solubility relative to the dose concentration” value in data set [5] is “greater than 75%”.

As for `O=C(O)c1ccc2c(c1)nc(NCCc1ccccc1)c1ccncc12` [Compound 27, 5-(phenethylamino)benzo[c][2,6]naphthyridine-8-carboxylic acid], in data set [5], the “measured solubility relative to the dose concentration” value is on record as “greater than 75%” and the kinetic solubility at 24 h is > 100 µM.

For the compound `COc1cccc(Nc2nc3cc(C(=O)O)ccc3c3cnccc23)c1` [Compound 28, 5-((3-methoxyphenyl)amino)benzo[c][2,6]naphthyridine-8-carboxylic acid], the “measured solubility relative to the dose concentration” value in data set [5] is recorded as “greater than 75%”.

These data come from paper PMC10108397 (ACS Medicinal Chemistry Letters, 2023).
